Measurements from PubChem BioAssay (NCI).
Several values for one entry are separate records, joined by “and”; a condition that tells them apart may be missing. Equal entries are not always repeated.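 Interpolation was linear, between the two tested concentrations surrounding the appropriate level; five concentrations were tested over 48 hours in 96-well plates. At the GI50, growth is halved. TGI marks complete inhibition of growth.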

What was measured:
Assay in all cases: DTP human tumour cell line panel, 48 h
[1] = tested on: HS 578T breast
[2] = tested on: NCI/ADR-RES ovarian
[3] = tested on: MDA-MB-435
[4] = tested on: MDA-N
[5] = tested on: DMS 114 small cell lung
[6] = tested on: DMS 273 small cell lung
[7] = tested on: DLD-1 colon
[8] = tested on: RXF-631 renal

## Cc1ccc(NC2=C(Cl)C(=O)N(Cc3ccccc3)C2=O)cc1O
[1]
  GI50: 25.9 µM
  TGI: 83.4 µM
[2]
  GI50: 30.8 µM
  TGI: > 100 µM
[3]
  GI50: 29 µM
  TGI: > 100 µM

## Cc1coc2c1CC1(C)C(CCC(O)C1C)C2 (stereo not drawn)
[1]
  TGI: > 100 µM
[2]
  TGI: > 100 µM
[3]
  TGI: > 100 µM
[4]
  TGI: > 100 µM

## CC(C)=CC(=O)C1c2cccc(O)c2C(=O)c2c(O)cc(C)cc21 (stereo not drawn)
[5]
  TGI: 3.57 µM
[6]
  TGI: 9.46 µM
[7]
  TGI: 7.89 µM

## COC1CCC(N2C(=O)CNc3ncc(-c4ccc(C(C)(C)O)nc4)nc32)CC1 (stereo not drawn)
[1]
  GI50: 0.407 µM and 0.137 µM
  TGI: 3.68 µM and 0.624 µM
[2]
  GI50: 1.64 µM and 0.435 µM
  TGI: > 100 µM
[3]
  GI50: 0.668 µM and 0.167 µM
  TGI: 3.28 µM

## Cc1ccc(C(=O)/C(=C/c2ccc([N+](=O)[O-])cc2)SCc2ccc(Cl)cc2)cc1
[1]
  GI50: 2.14 µM
  TGI: 6.96 µM
[2]
  GI50: 2.06 µM
  TGI: 6.81 µM
[3]
  GI50: 1.86 µM
  TGI: 4.3 µM

## NC(=O)c1sc(-n2cnc3ccccc32)cc1OCc1ccccc1Br
[1]
  GI50: 9.11 µM
  TGI: > 25 µM
[2]
  GI50: 0.869 µM
  TGI: > 25 µM
[3]
  GI50: 0.795 µM
  TGI: 5.47 µM

## O=C1CC(c2ccc3c(c2)OCO3)Nc2ccccc21 (stereo not drawn)
[1]
  GI50: 17.8 µM
  TGI: 77 µM
[2]
  GI50: 11.8 µM
  TGI: 39.9 µM
[3]
  GI50: 4.94 µM
  TGI: 31.1 µM

## O=C(O)c1ccccc1[Se][Se]c1ccccc1C(=O)O
[5]
  TGI: > 100 µM
[8]
  TGI: > 100 µM
[6]
  TGI: > 100 µM
[7]
  TGI: > 100 µM

## NC(Cc1c[nH]c2c(O)cccc12)C(=O)O (stereo not drawn)
[2]
  GI50: > 100 µM
  TGI: > 100 µM
[3]
  GI50: > 100 µM
  TGI: > 100 µM

## CSc1nc2c(c(=O)[nH]1)N=C1c3ccccc3C(=O)C1C(c1ccccc1)N2 (stereo not drawn)
[1]
  GI50: 2.1 µM
  TGI: 7.18 µM
[2]
  GI50: 4.54 µM
  TGI: 32.1 µM
[3]
  GI50: 0.494 µM
  TGI: 6.91 µM

## COc1cc(-c2nn(-c3ccc(NC(=O)c4ccc(Cl)c(C(F)(F)F)c4)cc3)cc2-c2ccncc2)ccc1Cl
[1]
  GI50: 1.23 µM
  TGI: 4.03 µM
[2]
  GI50: 3.63 µM
  TGI: > 100 µM
[3]
  GI50: 2.41 µM
  TGI: > 100 µM

## O=C(Nc1ccccc1)NS(=O)(=O)c1ccc(-n2nc3c(c2-c2cccs2)Cc2ccccc2-3)cc1
[1]
  GI50: 16.8 µM
  TGI: 52.5 µM
[2]
  GI50: 16.1 µM
  TGI: 43 µM
[3]
  GI50: 22.1 µM
  TGI: 58.3 µM

## Cn1c2ccccc2c2c(Nc3ccccc3)c3ccccc3nc21
[1]
  GI50: 18.2 µM
  TGI: 60 µM
[2]
  GI50: 54.1 µM
  TGI: > 100 µM
[3]
  GI50: 2.7 µM
  TGI: 6.85 µM

## COc1ccc2c3c1C(=O)CCCC3CO2 (stereo not drawn)
[5]
  TGI: > 100 µM
[6]
  TGI: > 100 µM
[7]
  TGI: > 100 µM

## CN/N=C(/Cc1occc(=O)c1O)C(=O)Nc1ccccc1C
[5]
  TGI: > 100 µM

## OCc1ccc(N2CCC2c2ccc(F)cc2)cc1Cl (stereo not drawn)
[1]
  GI50: 26.7 µM
  TGI: > 86.8 µM
[2]
  GI50: 23.7 µM
  TGI: > 88.8 µM
[3]
  GI50: 26.6 µM
  TGI: > 75.7 µM

## O=C(Nc1ccccc1OC(F)(F)F)Nc1n[nH]c2ccccc12
[1]
  GI50: 19.4 µM
  TGI: > 100 µM
[2]
  GI50: 44.2 µM
  TGI: > 100 µM
[3]
  GI50: 51.5 µM
  TGI: > 100 µM

## Cc1ccc2c(=O)cc(-c3ccc(F)cc3)[nH]c2n1
[1]
  TGI: > 100 µM
[2]
  TGI: 86.9 µM
[3]
  GI50: 5.87 µM
  TGI: 22.2 µM
[4]
  TGI: 32.1 µM

## CCCCCN(CCCCC)CC(O)c1cc(C)c2ccc3cc(C(C)C)ccc3c2c1 (stereo not drawn)
[1]
  GI50: 1.93 µM
  TGI: 4.65 µM
[2]
  GI50: 2.16 µM
  TGI: 4.61 µM
[3]
  GI50: 1.72 µM
  TGI: 3.21 µM

## O=S1(=O)c2ccccc2NC(c2ccc3ccccc3c2)CC1c1ccccc1F (stereo not drawn)
[8]
  TGI: > 100 µM
[6]
  TGI: > 100 µM
[7]
  TGI: > 100 µM

## CC1=C(C(=O)Nc2ccc(Cl)c(Cl)c2)C(c2cccc(Oc3ccccc3)c2)NC(=S)N1 (stereo not drawn)
[1]
  GI50: 5.03 µM
  TGI: 13.5 µM
[2]
  GI50: 10.2 µM
  TGI: 17.4 µM
[3]
  GI50: 7.55 µM
  TGI: 14.2 µM

## COC1=CC(c2ccc[nH]2)=N/C1=C\c1[nH]c(C)c(C(=O)OC(C)C)c1C
[1]
  GI50: 0.0445 µM
  TGI: 0.34 µM
[2]
  GI50: 0.0367 µM
  TGI: 1.42 µM
[3]
  GI50: 0.0349 µM
  TGI: 0.386 µM

## c1ccc2cc(-c3cc(-c4cc(-c5ccc6ccccc6c5)on4)no3)ccc2c1
[1]
  TGI: > 100 µM
[2]
  TGI: > 100 µM
[3]
  TGI: > 100 µM
[4]
  TGI: > 100 µM

## CCOC(=O)[C@]1(OC(C)=O)C[C@H](OC(C)=O)[C@@H](C(F)COP(=O)(OCc2ccccc2)OCc2ccccc2)O1 (stereo partly drawn)
[1]
  TGI: > 100 µM
[2]
  TGI: > 100 µM
[3]
  GI50: 18.3 µM and 79.2 µM
  TGI: 38.2 µM and > 100 µM
[4]
  TGI: > 100 µM

## NNC(=O)Nc1cccnc1
[2]
  TGI: > 100 µM
[3]
  TGI: > 100 µM
[4]
  TGI: > 100 µM

## O=C1/C(=C/c2ccccc2)CN(C(=O)C(Cl)(Cl)Cl)C/C1=C\c1ccccc1
[5]
  TGI: 3.19 µM
[6]
  TGI: 2.38 µM
[7]
  TGI: 4.28 µM

## CC1(C)CCc2c(c3c(c4c(=O)c(O)c(-c5ccc(O)cc5)oc24)OC(C)(C)CC3)O1
[1]
  GI50: 69.8 µM
  TGI: > 100 µM
[2]
  GI50: 55.7 µM
  TGI: > 100 µM
[3]
  GI50: > 100 µM
  TGI: > 100 µM

## CCCCCCCCCCCOc1ccc(C(=O)C(=O)c2ccc(OCCCCCCCCCCC)c(OCCCCCCCCCCC)c2)cc1OCCCCCCCCCCC
[5]
  TGI: > 100 µM
[6]
  TGI: > 100 µM
[7]
  TGI: > 100 µM

## Clc1ccc2c(NCCCCNc3nc(N4CCCCC4)nc4ccccc34)ccnc2c1
[1]
  GI50: 1.82 µM
  TGI: 4.6 µM
[2]
  GI50: 2.68 µM
  TGI: 9.18 µM
[3]
  GI50: 1.67 µM
  TGI: 3.2 µM

## Cc1nc2ccccc2c(N)c1-c1cc(C)c2c(C)nc3ccccc3c2n1
[1]
  GI50: 0.891 µM
[2]
  GI50: 1.34 µM
  TGI: 3.15 µM
[3]
  GI50: 1.51 µM
  TGI: 2.86 µM

## Cn1cnc([N+](=O)[O-])c1Sc1nnc(-c2cccnc2)n1C
[5]
  TGI: > 49.2 µM
[1]
  TGI: > 89.4 µM
[2]
  TGI: > 100 µM
[3]
  TGI: 30.2 µM
[6]
  TGI: > 100 µM
[4]
  TGI: 43.3 µM
[7]
  TGI: 40.5 µM
